Experiments:
[1] = tested on: ERK1/2 phosphorylation of p90RSK in HT29 cells; experiment: pRSK MSD Assay in HT29 cells; format: cell-based; conditions: Homo sapiens, HT-29, read-out: ERK1/ERK2 PRSK MSD HT29 EC50
Outline: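 Phospho-RSK level, read by electrochemiluminescence on RSK-antibody-coated MSD plates with a phospho-RSK/Sulfo-tag detection pair, reports cellular ERK1/2 activity. HT29 cells, kept overnight in 0.1% FBS medium, were exposed to compound for 120 min at 37° C before lysis.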

[2] = tested on: HT-29 cells (colorectal adenocarcinoma); experiment: Inhibition of cancer cell proliferation, HT-29 (CellTiterGlo, 72 hours); format: cell-based; conditions: Homo sapiens
Outline: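 Proliferation over 72 h at 37° C was read by CellTiterGlo luminescence, translated to cell counts with a cell-density standard curve (390–50,000 cells). Compound added as 3-fold dilutions from a 5,000 nM two-fold stock to 3000 seeded HT-29 cells; GI50 from percent inhibition relative to untreated wells.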

[3] = tested on: HCT116 cells (colorectal carcinoma); experiment: Inhibition of cancer cell proliferation, HCT116 (CellTiterGlo, 72 hours); format: cell-based; conditions: Homo sapiens, HCT-116
Description: Measurement of Inhibition of Cancer Cell Proliferation (HCT116/Colorectal Carcinoma)
The following protocol used a HCT116 cell line, which cell line is a model for colorectal carcinoma. HCT116 cells were split and 3000 cells in 100 μl of growth medium were added per well of a flat-bottom 96-well plate. A two-fold test compound solution in serum-free RPM1640 was made, starting at 5,000 nM. Then, 3-fold serial dilutions were made across the plate from well 1 to well 11. Well 12, the last well in a row on the plate, was left as untreated control. 100 μl compound solutions were then transferred to the wells, so the total volume of media was 200 μl per well. Plates were returned to a 37° C. incubator, and the cells were cultured for 72 hours. To measure cell proliferation after 72 hours, media was discarded from the plates, 50 μl/well of fresh medium was added, and 50 μl CellTiterGlo solution was added (Promega Cat#G7573). The plate was covered with a dark lid and incubated for 10 min. A white sealing tape was applied to the bottom of the plate, and the plate was read in a luminescence plate reader. […] 50 μl CellTiterGlo was added per well, and the plate was read in a luminescence plate reader after 10 min. The reading was plotted vs. cell number to generate a standard curve and the equation of the curve fit. The compound-treated sample luminescence readings were converted to cell numbers using the curve-fit equation. The percent of inhibition, using untreated control as 100% growth, was then calculated. GI50 was then calculated by GraphPad Prism.

[4] = tested on: A375 cells (malignant melanoma); experiment: Inhibition of cancer cell proliferation, A375 (CellTiterGlo, 72 hours); format: cell-based; conditions: Homo sapiens, A-375
Outline: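 GI50 derived from % growth inhibition relative to untreated wells, after luminescence (CellTiterGlo, 10 min) was converted to cell counts using a standard curve. Compound given as 3-fold dilutions from a 2× 5,000 nM stock in serum-free DMEM; 3000 A375 cells/well, 72 h culture at 37 °C.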

[5] = target: T1, Erk1 (Homo sapiens, UniProt P27361); experiment: Protein Mass Modification Assay (intact protein MALDI, 60 min, 10-fold excess of compound); format: binding
T1 construct: purchased Millipore 14-439
T1 sequence (P27361 whole entry): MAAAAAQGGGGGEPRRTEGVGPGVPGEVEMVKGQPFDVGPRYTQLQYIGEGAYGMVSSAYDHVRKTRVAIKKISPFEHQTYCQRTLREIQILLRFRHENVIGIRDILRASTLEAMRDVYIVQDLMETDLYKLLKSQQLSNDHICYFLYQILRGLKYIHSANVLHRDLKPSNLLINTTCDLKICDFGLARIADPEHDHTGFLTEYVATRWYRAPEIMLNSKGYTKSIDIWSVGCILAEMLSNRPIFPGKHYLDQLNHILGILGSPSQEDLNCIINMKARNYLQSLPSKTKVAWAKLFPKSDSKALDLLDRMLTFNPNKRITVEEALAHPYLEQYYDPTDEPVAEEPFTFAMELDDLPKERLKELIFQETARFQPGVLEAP
Description: Protein Mass Modification Assay
Intact protein: Erk1 from Millipore (Cat. No. 14-439) was incubated for 60 min. at room temperature with a 10-fold excess of test compound to protein. 4 μL aliquots of the resulting mixture were diluted with 15 μL of 0.2% TFA prior to micro C4 ZipTipping directly onto the MALDI target using sinapinic acid as the desorption matrix (10 mg/ml in 0.1% TFA:Acetonitrile 50:50, v/v). The centroid mass of the target protein in the control sample was compared with the centroid mass of the target protein incubated with compound. A shift in the centroid mass of the treated protein compared to the untreated protein was divided by the molecular weight of the compound. This number corresponds to the percentage of modified protein after one hour incubation. Results from this assay are reported in Table A under the column “ERK1 Mass Mod (%).”

[6] = tested on: ERK1/2 phosphorylation of p90RSK in A375 cells; experiment: Detection of total and phosphor-RSK by MSD ELISA (A375); format: cell-based; conditions: Homo sapiens, A-375, read-out: ERK1/ERK2 PRSK A375 EC50
Outline: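 Electrochemiluminescent MSD ELISA: common RSK capture antibody, with pRSK Ser380 or total RSK detection antibodies plus SulfoTag secondaries. Samples were lysates of A375 cells exposed to compound for 2 h at 37° C after overnight culture in 0.1% FBS DMEM.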

[7] = tested on: ERK1/2 phosphorylation of p90RSK in HCT116 cells; experiment: Detection of total and phospho-RSK by MSD ELISA (HCT116); format: cell-based; conditions: Homo sapiens, HCT-116, read-out: ERK1/ERK2 PRSK HCT116 EC50
Description: Detection of Total and Phospho-RSK by MSD ELISA (HCT116)
The protocol below describes an assay to measure the kinase activity of ERK1/2 to phosphorylate a substrate, p90RSK, in the presence or absence of a test compound.
HCT116 cells were grown in RPMI/10% FBS. Prior to the assay, 50,000 cells per well were plated in a 96 well flat bottom plate. Cells were cultured overnight in an incubator at 37° C.
Compound stocks were 10 mM in DMSO. A 1000× dilution was made in DMSO. 1 uL of the DMSO solution was transferred to 1 ml RPMI/10% FBS in a deep well plate. Media in the cell plate was discarded, and 100 uL of the compound-containing media was added. The preparation was incubated at 37° C. for 2 hrs.
Preparation of cell lysates are described below.
pRSK or total RSK MSD Assay
MSD plates: Blank MSD plates were coated with 30 uL capture antibody (BD 610226) at a final concentration of 1 ug/mL in PBS. Both pRSK and total RSK MSD assays used the same capture antibody at the same concentration. Antibody stock concentration was 250 ug/mL. Once antibody solution was added to MSD plate, the sides were tapped to be certain it was coated completely (visual inspection). It was then covered and placed at 4° C. overnight on a level surface.
Block MSD Plate: The coating antibody was removed and the plate was washed on a plate washer in MSD wash buffer. The last bit of wash solution was tapped out and 150 uL/well 3% BSA (MSD Blocker A) in MSD wash buffer was added. The preparation was placed on a shaker at room temperature for at least an hour.
Add samples: Media was removed from compound-treated cells and replaced with 55 uL/well MSD cell lysis buffer containing protease and phosphotase I & II inhibitors. The preparations was incubate on a shaker in a cold room for 30-45 min. The blocked MSD plate was washed on a plate washer, and the last bit of wash solution was tapped out. Next was added 50 uL (of the 55 uL) cell lysate in a well-well transfer. The preparation was covered and incubated on shaker at room temp for 2 hours. The lysate was then removed and washed on plate washer 3 times. The last bit of wash buffer was then tapped out and replaced with 25 uL/well detection antibody (described below).
For pRSK detection, a pRSK antibody stock of 21 ug/mL was prepared as follows: 1 ug/mL pRSK Ser380 antibody (Cell Signaling Technology, Cat. #9335)+1:750 anti-rabbit SulfoTag (from MSD, R32AB-1) in 1% BSA in MSD wash buffer.
For total RSK detection, a total RSK antibody stock of 200 ug/mL was prepared as follows: 1 ug/mL total RSK (Santa Cruz sc-231G) antibody+1:750 anti-goat SulfoTag (from MSD, R32AG-1) in 1% BSA in MSD wash buffer.
The plate was incubated for 1 hr at room temperature on a shaker, followed by three washes. The last bit of wash buffer was tapped out. Next, 150 uL/well 1×MSD Read buffer was added and the plate was analyzed by the MSD reader.

Structure (SMILES) | EC50 [1] | GI50 [2] | GI50 [3] | GI50 [4] | ERK1 Mass Mod (%) [5] | EC50 [6] | EC50 [7]
C=CC(=O)Nc1ccccc1Nc1nc(N[C@H]2CCCN(C(C)=O)C2)ncc1C(F)(F)F [Compound I-10, (S)—N-(2-(2-(1-acetylpiperidin-3-ylamino)-5-(trifluoromethyl)pyrimidin-4-ylamino)phenyl)acrylamide] | < 100 nM | < 100 nM | < 100 nM | < 100 nM |  |  | 
C=CC(=O)Nc1cc(C)ccc1Nc1nc(N[C@H]2CCCN(C(C)=O)C2)ncc1C(F)(F)F [Compound I-19, (S)—N-(2-((2-((1-Acetylpiperidin-3-yl)amino)-5-(trifluoromethyl)pyrimidin-4-yl)amino)-5-methylphenyl)acrylamide] | < 100 nM | < 100 nM | < 100 nM | < 100 nM |  |  | 
C=CC(=O)Nc1cc(C)ccc1Nc1nc(N[C@H]2CCCN(C(=O)CF)C2)ncc1C(F)(F)F [Compound I-43, (S)—N-(2-((2-((1-(2-Fluoroacetyl)piperidin-3-yl)amino)-5-(trifluoromethyl)pyrimidin-4-yl)amino)-5-methylphenyl)acrylamide] |  |  |  | < 100 nM | E (a mass modification of ≧70%) |  | 
C=CC(=O)Nc1ccccc1Nc1nc(N[C@H]2CCC[C@@H](C(N)=O)C2)ncc1C(F)(F)F [Compound I-118, (1R,3S)-3-((4-((2-acrylamidophenyl)amino)-5-(trifluoromethyl)pyrimidin-2-yl)amino)cyclohexanecarboxamide] | < 100 nM | 101 to 500 nM |  | 101 to 500 nM | E (a mass modification of ≧70%) |  | 
C=CC(=O)Nc1ccccc1Nc1nc(N[C@H]2CCC[C@@H](C(N)=O)C2)ncc1Cl [Compound I-120, (1R,3S)-3-((4-((2-acrylamidophenyl)amino)-5-chloropyrimidin-2-yl)amino)cyclohexanecarboxamide] | < 100 nM | < 100 nM |  | 101 to 500 nM | E (a mass modification of ≧70%) |  | 
C=CC(=O)Nc1cc(Cl)ccc1Nc1nc(Nc2cc(OC)ncc2C)ncc1Cl [Compound I-248, N-(5-chloro-2-((5-chloro-2-((2-methoxy-5-methylpyridin-4-yl)amino)pyrimidin-4-yl)amino)phenyl)acrylamide] |  | 501 to 999 nM | > 1000 nM | 501 to 999 nM |  |  | 
C=CC(=O)Nc1cc(C)ccc1Nc1nc(Nc2cc(OC)ncn2)ncc1C(F)(F)F [Compound I-348, N-(2-((2-((6-methoxypyrimidin-4-yl)amino)-5-(trffluoromethyl)pyrimidin-4-yl)amino)-5-methylphenyl)acrylamide] | 101 to 500 nM |  |  |  | G (a mass modification ≦30%) | 501 to 999 nM | 501 to 999 nM
COc1cc(Nc2ncc(C(F)(F)F)c(Nc3ccc(C)cc3N)n2)c(C)cn1 [Compound I-353, N^4-(2-amino-4-methylphenyl)-N^2-(2-methoxy-5-methylpyridin-4-yl)-5-(trifluoromethyl)pyrimidine-2,4-diamine] |  |  |  |  | G (a mass modification ≦30%) | > 1000 nM | > 1000 nM
C=CC(=O)Nc1cc(C)ccc1Nc1nc(Nc2nc(O)ncc2Cl)ncc1C(F)(F)F [Compound I-363, N-(2-((2-((5-chloro-2-hydroxypyrimidin-4-yl)amino)-5-(trifluoromethyl)pyrimidin-4-yl)amino)-5-methylphenyl)acrylamide] | > 1000 nM |  |  |  | E (a mass modification of ≧70%) | > 1000 nM | > 1000 nM
C=CC(=O)Nc1cc(C)ccc1Nc1nc(Nc2cc(O)ncc2C)ncc1C(F)(F)F [Compound I-365, N-(2-((2-((2-hydroxy-5-methylpyridin-4-yl)amino)-5-(trifluoromethyl)pyrimidin-4-yl)amino)-5-methylphenyl)acrylamide] | > 1000 nM |  |  |  | E (a mass modification of ≧70%) | > 1000 nM | > 1000 nM
C=CC(=O)Nc1cc(C(=O)N2CCN(C(=O)CO)CC2)ccc1Nc1nc(Nc2cc(OC)ncc2C)ncc1C(F)(F)F [Compound I-402, N-(5-(4-(2-hydroxyacetyl)piperazine-1-carbonyl)-2-((2-((2-methoxy-5-methylpyridin-4-yl)amino)-5-(trifluoromethyl)pyrimidin-4-yl)amino)phenyl)acrylamide] | 501 to 999 nM |  |  |  | E (a mass modification of ≧70%) | 501 to 999 nM | 101 to 500 nM
C=CC(=O)Nc1cc(OCC(=O)N2CCN(c3ncccn3)CC2)ccc1Nc1nc(Nc2cc(OC)ncc2C)ncc1C(F)(F)F [Compound I-403, N-(2-((2-((2-methoxy-5-methylpyridin-4-yl)amino)-5-(trifluoromethyl)pyrimidin-4-yl)amino)-5-(2-oxo-2-(4-(pyrimidin-2-yl)piperazin-1-yl)ethoxy)phenyl)acrylamide] | < 100 nM |  |  |  | E (a mass modification of ≧70%) | 101 to 500 nM | 101 to 500 nM
